According to patent US20060034889A1, “Biodegradable diblock copolymers having reverse thermal gelation properties and methods of use thereof” (MacroMed, Inc., priority 2004, published 2006):

Settings: 30% by weight aqueous PLG-PEG diblock copolymer solutions or gels, 120 days, 5 °C and 37 °C

CC(=O)O[C@H]1C(=O)[C@@]2(C)[C@H]([C@H](OC(=O)c3ccccc3)[C@]3(O)C[C@H](OC(=O)[C@H](O)[C@@H](NC(=O)c4ccccc4)c4ccccc4)C(C)=C1C3(C)C)[C@]1(OC(C)=O)CO[C@@H]1C[C@@H]2O [paclitaxel]
drug intact after storage: greater than 85%
